Test results taken from US10894784B2, “Heteroarylbenzimidazole compounds” (BAYER PHARMA AKTIENGESELLSCHAFT, priority 2015, dated 2021).

Biological target: TBK1 (Homo sapiens (Human), UniProt Q9UHD2)
Experiment: TBK1 low ATP kinase assay (in vitro assay 1)
Type: biochemical
Conditions: in vitro assay 1, read-out: TBK1 low ATP kinase assay IC50

TBK1, sequence (Q9UHD2 whole entry): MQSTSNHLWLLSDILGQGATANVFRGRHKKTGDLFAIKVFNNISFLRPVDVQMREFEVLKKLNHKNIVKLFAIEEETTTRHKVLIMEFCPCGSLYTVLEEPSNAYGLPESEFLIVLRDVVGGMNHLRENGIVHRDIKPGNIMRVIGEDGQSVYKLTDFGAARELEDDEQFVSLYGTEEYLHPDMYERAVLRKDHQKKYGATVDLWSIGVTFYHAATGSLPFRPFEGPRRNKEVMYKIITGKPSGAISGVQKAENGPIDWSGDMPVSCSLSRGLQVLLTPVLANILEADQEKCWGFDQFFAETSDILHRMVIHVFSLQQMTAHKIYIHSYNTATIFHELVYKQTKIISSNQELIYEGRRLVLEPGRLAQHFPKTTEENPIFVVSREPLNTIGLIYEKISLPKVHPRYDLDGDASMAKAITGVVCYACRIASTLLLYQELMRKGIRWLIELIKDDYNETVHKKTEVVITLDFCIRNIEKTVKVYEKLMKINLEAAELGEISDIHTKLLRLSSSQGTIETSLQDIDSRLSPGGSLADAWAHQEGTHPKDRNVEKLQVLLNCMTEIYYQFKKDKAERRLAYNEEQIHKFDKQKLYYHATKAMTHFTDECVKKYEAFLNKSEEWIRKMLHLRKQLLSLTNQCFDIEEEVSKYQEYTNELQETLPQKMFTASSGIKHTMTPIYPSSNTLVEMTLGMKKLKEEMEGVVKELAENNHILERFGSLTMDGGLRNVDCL

Row | SMILES | IC50
1 | CC(c1ccnc(Nc2nc3ccc(-c4cc(OCC(F)(F)C(F)(F)F)ncn4)cc3[nH]2)c1)N1CCN(C(=O)CC(F)(F)F)CC1 (single isomer, unassigned) [Example 166.02, 3,3,3-trifluoro-1-(4-{(1R or 1S)-1-[2-({6-[6-(2,2,3,3,3-pentafluoropropoxy)pyrimidin-4-yl]-1H-benzimidazol-2-yl}amino)pyridin-4-yl]ethyl}piperazin-1-yl)propan-1-one] | 20.5 nM
2 | Cc1cc(-c2ccc3nc(Nc4cc(C(C)N5CCN(C(=O)OC(C)(C)C)CC5)ccn4)[nH]c3c2F)ncn1 (single isomer, unassigned) [Example 172.01, tert-butyl 4-[(1R or 1S)-1-(2-{[7-fluoro-6-(6-methylpyrimidin-4-yl)-1H-benzimidazol-2-yl]amino}pyridin-4-yl)ethyl]piperazine-1-carboxylate] | 39.8 nM
3 | Cc1c(-c2ccc3nc(Nc4cc(CN5CCN(C(=O)C6CC6)CC5)ccn4)[nH]c3c2)ncnc1C(F)(F)F [Example 183.03, cyclopropyl(4-{[2-({6-[5-methyl-6-(trifluoromethyl)pyrimidin-4-yl]-1H-benzimidazol-2-yl}amino)pyridin-4-yl]methyl}piperazin-1-yl)methanone] | 2240 nM
4 | COc1cc(-c2ccc3nc(Nc4cc(CN5CCN(C(=O)CC6CC6)CC5)ccn4)[nH]c3c2)c(F)cn1 [Example 03.04, 2-cyclopropyl-1-{4-[(2-{[6-(5-fluoro-2-methoxypyridin-4-yl)-1H-benzimidazol-2-yl]amino}pyridin-4-yl)methyl]piperazin-1-yl}ethanone] | 288 nM
5 | CC(c1ccnc(Nc2nc3ccc(-c4cnn(CC5CCC5)c4)c(F)c3[nH]2)c1)N1CCN(C(=O)C2CC2)CC1 (single isomer, unassigned) [Example 171.03, (4-{(1R or 1S)-1-[2-({6-[1-(cyclobutylmethyl)-1H-pyrazol-4-yl]-7-fluoro-1H-benzimidazol-2-yl}amino)pyridin-4-yl]ethyl}piperazin-1-yl)(cyclopropyl)methanone] | 2.85 nM
6 | Cc1noc(-c2ccc3nc(Nc4cc(CN5CCN(C(=O)C6CCC6)CC5(C)C)ccn4)[nH]c3c2)n1 [Example 16.04.05, cyclobutyl{3,3-dimethyl-4-[(2-{[6-(3-methyl-1,2,4-oxadiazol-5-yl)-1H-benzimidazol-2-yl]amino}pyridin-4-yl)methyl]piperazin-1-yl}methanone] | 491 nM
7 | CC(c1ccnc(Nc2nc3ccc(-c4cnn(CC5CCC5)c4)c(Cl)c3[nH]2)c1)N1CCN(C(=O)CC(F)(F)F)CC1 (single isomer, unassigned) [Example 75.02, 1-(4-{(1R or 1S)-1-[2-({7-chloro-6-[1-(cyclobutylmethyl)-1H-pyrazol-4-yl]-1H-benzimidazol-2-yl}amino)pyridin-4-yl]ethyl}piperazin-1-yl)-3,3,3-trifluoropropan-1-one] | 1.4 nM
8 | COc1nccc(-c2ccc3nc(Nc4cc(CN5CCN(C(=O)C6CCC6)CC5)ccn4)[nH]c3c2)n1 [Example 25.01.02, cyclobutyl{4-[(2-{[6-(2-methoxypyrimidin-4-yl)-1H-benzimidazol-2-yl]amino}pyridin-4-yl)methyl]piperazin-1-yl}methanone] | 218 nM
9 | Cc1ncc(C)c(-c2ccc3nc(Nc4cc(CN5CCN(C(=O)C6CC6)CC5)ccn4)[nH]c3c2)n1 [Example 33.03, cyclopropyl{4-[(2-{[6-(2,5-dimethylpyrimidin-4-yl)-1H-benzimidazol-2-yl]amino}pyridin-4-yl)methyl]piperazin-1-yl}methanone] | 1500 nM
10 | O=C(C1CC1)N1CCN(Cc2ccnc(Nc3nc4ccc(-c5cc(NC6CC6)ncn5)cc4[nH]3)c2)CC1 [Example 151.03, cyclopropyl(4-{[2-({6-[6-(cyclopropylamino)pyrimidin-4-yl]-1H-benzimidazol-2-yl}amino)pyridin-4-yl]methyl}piperazin-1-yl)methanone] | 1 nM
11 | COCCOCCS(=O)(=O)N1CCN(Cc2ccnc(Nc3nc4ccc(-c5ncncc5OC)cc4[nH]3)c2)CC1 [Example 35.01.11, N-{4-[(4-{[2-(2-methoxyethoxy)ethyl]sulfonyl}piperazin-1-yl)methyl]pyridin-2-yl}-6-(5-methoxypyrimidin-4-yl)-1H-benzimidazol-2-amine] | 28.6 nM
12 | COc1cnc(OCC2CC2)nc1-c1ccc2nc(Nc3cc(CN4CCN(C(=O)OC(C)(C)C)CC4)ccn3)[nH]c2c1 [Example 64.01.01, tert-butyl 4-{[2-({6-[2-(cyclopropylmethoxy)-5-methoxypyrimidin-4-yl]-1H-benzimidazol-2-yl}amino)pyridin-4-yl]methyl}piperazine-1-carboxylate] | 217 nM
13 | CN(C)c1nccnc1-c1ccc2nc(Nc3cc(CN4CCN(C(=O)C5CC5)CC4)ccn3)[nH]c2c1 [Example 196.03, cyclopropyl(4-{[2-({6-[3-(dimethylamino)pyrazin-2-yl]-1H-benzimidazol-2-yl}amino)pyridin-4-yl]methyl}piperazin-1-yl)methanone] | 1420 nM
14 | CC(c1ccnc(Nc2nc3ccc(-c4cc(N5CC(C(F)(F)F)C5)ncn4)cc3[nH]2)c1)N1CCN(C(=O)C2(C(F)(F)F)CC2)CC1 (single isomer, unassigned) [Example 164.04, {4-[(1R or 1S)-1-{2-[(6-{6-[3-(trifluoromethyl)azetidin-1-yl]pyrimidin-4-yl}-1H-benzimidazol-2-yl)amino]pyridin-4-yl}ethyl]piperazin-1-yl}[1-(trifluoromethyl)cyclopropyl]methanone] | 0.832 nM
15 | CN(C)c1ncnc(-c2ccc3nc(Nc4cc(CN5CCN(C(=O)OC(C)(C)C)CC5)ccn4)[nH]c3c2)c1Cl [Example 179.01, tert-butyl 4-{[2-({6-[5-chloro-6-(dimethylamino)pyrimidin-4-yl]-1H-benzimidazol-2-yl}amino)pyridin-4-yl]methyl}piperazine-1-carboxylate] | 3010 nM
16 | CC(C)(C)OC(=O)N1CCN(Cc2ccnc(Nc3nc4ccc(-c5ccnc(C(F)F)c5)cc4[nH]3)c2)CC1 [Example 139.01, tert-butyl 4-{[2-({6-[2-(difluoromethyl)pyridin-4-yl]-1H-benzimidazol-2-yl}amino)pyridin-4-yl]methyl}piperazine-1-carboxylate] | 55 nM
17 | CC(c1ccnc(Nc2nc3ccc(-c4cnn(CC5CC5)c4)c(F)c3[nH]2)c1)N1CCN(C(=O)C2CC2)CC1 (single isomer, unassigned) [Example 121.03, cyclopropyl(4-{(1R or 1S)-1-[2-({6-[1-(cyclopropylmethyl)-1H-pyrazol-4-yl]-7-fluoro-1H-benzimidazol-2-yl}amino)pyridin-4-yl]ethyl}piperazin-1-yl)methanone] | 1.6 nM
18 | C[C@H](c1ccnc(Nc2nc3ccc(-c4cc(OCC(F)(F)F)ncn4)cc3[nH]2)c1)N1CCN(C(=O)CC(F)(F)F)CC1 [Example 119.02, 3,3,3-trifluoro-1-(4-{(1R)-1-[2-({6-[6-(2,2,2-trifluoroethoxy)pyrimidin-4-yl]-1H-benzimidazol-2-yl}amino)pyridin-4-yl]ethyl}piperazin-1-yl)propan-1-one] | 6.69 nM
19 | CC(c1ccnc(Nc2nc3ccc(-c4cc(N5CC(C(F)(F)F)C5)ncn4)cc3[nH]2)c1)N1CCN(C(=O)OC(C)(C)C)CC1 (single isomer, unassigned) [Example 164.01, tert-butyl 4-[(1R or 1S)-1-{2-[(6-{6-[3-(trifluoromethyl)azetidin-1-yl]pyrimidin-4-yl}-1H-benzimidazol-2-yl)amino]pyridin-4-yl}ethyl]piperazine-1-carboxylate] | 5.48 nM
